Results published in patent US12286488B2, “Anti-dinitolmide monoclonal antibodies and hybridoma cell strain that secretes them” (JIANGNAN UNIVERSITY, priority 2020, dated 2025).
Converted amounts (≈) assume the structure as drawn.

Test system: anti-dinitolmide monoclonal antibody secreted by hybridoma cell strain DAS3H10
Assay: indirect competitive ELISA (IC50 and cross-reaction rates)
Format: binding, mouse
Settings: for IC50: dinitolmide monoclonal antibody; for cross-reaction rates: relative to dinitolmide
Text: The basic steps for the preparation of the DAS3H10 cell line provided by the invention are: • (1) Preparation and identification of immunogen: 3,5-dinitro-2-methylbenzoic acid, which is a structure analogue of dinitolmide, was used as a raw material and connected to the amino group of the protein carrier with the activated ester method. After the reaction was completed, the complete immunogen and the unconnected small molecule hapten were separated by dialysis. And the complete immunogen was identified by UV-VIS absorption spectrometry. • (2) Immunization of mice: BALB/c mice aged 6-8 weeks were selected for immunization. The immunogen, which was emulsified with […], was injected to the BALB/c mice by subcutaneous injection at multiple points. The Faust complete adjuvant was used for the first immunization, the Faust incomplete adjuvant was used for the booster immunization, and the commixture of the immunogen and normal saline was used for the sprint immunization by intraperitoneal injection. Each immunization dose was half of the previous immunization dose, and the interval between each immunization was three weeks. After the third immunization, blood collection was collected every one week for the detection of serum titer and inhibition. • (3) Cell fusion and cell line establishment: the cell fusion of mouse spleen cells and mouse myeloma cells was accomplished by polyethylene glycol (PEG 2000). After cultured culturing in HAT medium, there was detection of positive cells wells by indirect ELISA, and further detection of the inhibition effect of positive cell wells by indirect competition ELISA. Positive cell wells with the best inhibition effect were subcloned three times by limiting dilution assay, and finally the hybridoma cell strain DAS3H10 was finally screened. • (4) Identification of the properties of hybridoma cell strains: the identification of hybridoma cell strains were determined by HRP, and IC50, cross-reaction rates and affinity were determined by ELISA.
4. Cell screening and cell line establishment: during the cell fusion, half of the RPMI-1640 screening medium of the fusion cell was changed on the 3rd day, and all was replaced by the RPMI-1640 screening medium with 20% fetal bovine serum, 1% of 100×HT on the fifth day. The cell supernatant was used for screening on the 7th day, which is divided into two steps: the first step is to screen out the positive cell wells with indirect ELISA, the second step is to detect the inhibition effect of positive cell wells by indirect competition ELISA with dinitolmide used as the standard substance. The cell wells with good inhibition effect of dinitrotolamine were selected to be subcloned with finite dilution assay, and the inhibition effect was detected in the same way. This process was repeated three times to obtain the cell line.
6. […] Each sample was added to 3 wells. […]

IC50 [µg/mL]	Compound	cross-reaction rates [%]
>0.5	N#CC(c1ccc(Cl)cc1)c1c(Cl)cc(-n2ncc(=O)[nH]c2=O)cc1Cl (centres unmarked) [dikjuli]	<5
0.00901 (≈ 0.04 µM)	Cc1c(C(N)=O)cc([N+](=O)[O-])cc1[N+](=O)[O-] [dinitolmide]	100
>0.5	Cc1cc(-n2c(=O)[nH]c(=O)n(C)c2=O)ccc1Oc1ccc(SC(F)(F)F)cc1 [torquoly]	<5
>0.5	nicarbazine	<5
